Here are results for one compound from PMC7133791 (ChemMedChem, 2020).

The target in assay [1] is M. tuberculosis topoI (MttopoI) (Mycobacterium tuberculosis, UniProt P9WG49). The assay is described as follows: DNA relaxation inhibition assay. Format: biochemical. To be noted: assay conditions for MttopoI not stated; data not shown.
The target of assay [2] is T1, Escherichia coli topoisomerase I (EctopoI) (Escherichia coli, UniProt P06612).
T1 sequence (P06612 1-865): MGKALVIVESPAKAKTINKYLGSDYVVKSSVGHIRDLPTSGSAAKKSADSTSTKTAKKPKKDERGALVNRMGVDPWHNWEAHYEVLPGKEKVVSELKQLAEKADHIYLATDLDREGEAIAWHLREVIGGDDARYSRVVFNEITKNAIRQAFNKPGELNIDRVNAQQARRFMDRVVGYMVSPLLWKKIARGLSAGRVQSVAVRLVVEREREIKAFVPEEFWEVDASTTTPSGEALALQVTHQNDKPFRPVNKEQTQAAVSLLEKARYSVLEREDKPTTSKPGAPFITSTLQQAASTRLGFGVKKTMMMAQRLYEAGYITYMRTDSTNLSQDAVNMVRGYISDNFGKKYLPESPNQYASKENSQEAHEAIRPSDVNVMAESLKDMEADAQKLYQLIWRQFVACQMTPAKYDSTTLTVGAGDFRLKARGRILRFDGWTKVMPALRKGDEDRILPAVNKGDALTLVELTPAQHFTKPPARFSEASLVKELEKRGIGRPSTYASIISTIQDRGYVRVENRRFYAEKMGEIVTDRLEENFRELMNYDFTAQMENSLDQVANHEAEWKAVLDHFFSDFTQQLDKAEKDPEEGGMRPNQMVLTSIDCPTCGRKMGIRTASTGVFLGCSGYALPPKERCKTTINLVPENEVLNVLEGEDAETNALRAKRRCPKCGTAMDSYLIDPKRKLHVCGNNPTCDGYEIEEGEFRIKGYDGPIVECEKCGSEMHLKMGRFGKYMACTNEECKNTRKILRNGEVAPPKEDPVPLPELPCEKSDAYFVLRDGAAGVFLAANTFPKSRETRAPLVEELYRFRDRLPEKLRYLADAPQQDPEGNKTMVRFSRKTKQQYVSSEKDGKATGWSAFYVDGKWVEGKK
As to the kind of experiment: SPR. In kind it is binding. The settings on record: PBS-P, pH 7.4, 1% DMSO; no DNA; average of three experimental replicates.

Molecules are shown by their SMILES.

M. tuberculosis topoI (MttopoI), sequence (P9WG49 whole entry): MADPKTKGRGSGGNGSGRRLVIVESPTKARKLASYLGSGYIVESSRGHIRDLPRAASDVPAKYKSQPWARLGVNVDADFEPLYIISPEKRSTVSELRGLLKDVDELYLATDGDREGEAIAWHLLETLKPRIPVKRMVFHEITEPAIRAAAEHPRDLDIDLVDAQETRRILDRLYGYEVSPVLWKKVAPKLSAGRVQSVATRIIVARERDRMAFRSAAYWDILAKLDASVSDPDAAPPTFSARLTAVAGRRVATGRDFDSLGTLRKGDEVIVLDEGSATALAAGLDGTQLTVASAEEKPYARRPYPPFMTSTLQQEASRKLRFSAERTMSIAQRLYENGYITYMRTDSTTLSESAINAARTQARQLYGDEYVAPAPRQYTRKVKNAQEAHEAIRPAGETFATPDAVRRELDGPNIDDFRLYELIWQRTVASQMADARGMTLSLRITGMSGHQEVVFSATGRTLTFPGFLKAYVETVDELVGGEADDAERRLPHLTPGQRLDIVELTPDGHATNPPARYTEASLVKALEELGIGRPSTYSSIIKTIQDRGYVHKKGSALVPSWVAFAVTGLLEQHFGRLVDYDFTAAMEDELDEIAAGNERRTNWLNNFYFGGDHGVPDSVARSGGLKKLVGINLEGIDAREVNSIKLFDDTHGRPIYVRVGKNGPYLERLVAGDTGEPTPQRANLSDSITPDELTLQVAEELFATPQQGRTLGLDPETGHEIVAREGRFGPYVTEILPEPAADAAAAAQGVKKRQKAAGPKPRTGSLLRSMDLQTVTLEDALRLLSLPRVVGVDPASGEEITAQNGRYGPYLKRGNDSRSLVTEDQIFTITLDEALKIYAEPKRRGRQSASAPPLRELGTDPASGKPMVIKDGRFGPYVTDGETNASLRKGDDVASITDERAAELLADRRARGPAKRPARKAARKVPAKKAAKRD

As to `O=C(Nc1ccc(Sc2ccc(N=Nc3c(O)c(S(=O)(=O)O)cc4cc(S(=O)(=O)O)ccc34)cc2)cc1)c1ccc(N=Nc2c(O)ccc3c(S(=O)(=O)O)cc(S(=O)(=O)O)cc23)cc1` [NSC76027], the 50% inhibitory concentration (IC50) in assay [1] is approximately 3000 nM. Moreover, the Kd in assay [2] was found to be 79 ± 8 nM.
